Measurements taken from US11541029B2, “High penetration compositions and their applications” (Techfields Pharma Co., Ltd., priority 2008, dated 2023).

Columns and labels:
[1] = system: autologous blood clots injected in femoral vein (pulmonary thrombus); experiment: Anti-thrombosis activity, autologous blood clots in rabbits; type: in vivo, Chinese White rabbits; conditions: 50 mg/kg topically to the back twice per day, 5 days
Method: Eighteen Chinese White rabbits weighing between 3.0 and 3.5 kg (aged 6-7 months) were selected and divided into three groups (control, P-1 and […] groups, n=6). One hour before the experiment, thrombi were made by aspirating venous blood (1 ml) into a sterilized bottle to clot. To avoid fragmentation and slow lysis, the autologous blood clots were stabilized in temperature-controlled (70° C.) distilled water for 10 min. After anesthesia, the femoral veins were exposed and distally isolated, and autologous blood clots (0.05 g/kg) were injected through an indwelling catheter (20GA), which had been placed in the femoral vein isolated earlier. 50 mg/kg of diethylaminoethyl acetylsalicylate.HCl salt (P-1, 10% in 25% ethanol) and diethylaminoethyl acetylsalicylsalicylate.HCl salt (P-59, 10% in 25% ethanol) were topically applied to the back of the rabbits twice per day. After 5 days, rabbits were euthanized with an excessive intravenous injection of sodium amobarbital (60 mg/kg). The lungs and hearts were isolated to observe whether thrombi were present in the pulmonary arteries. The lungs were immersed in 10% formalin for 24 h. Consecutive transverse sections along the obstructed pulmonary arteries were paraffin-embedded and stained with hematoxylin-eosine. […]

normal SD rats (SLAC/SD) = experiment: Blood glucose in normal SD rats treated with HPCs of NSAIAs; type: in vivo; conditions: 30 mg/kg transdermally once per day, no fasting
Method: (§1) A HPC in the present disclosure lowered blood glucose levels in rat models (SLAC/GK, type 2 diabetes, n=7). 30 mg/kg of 8% diethylaminoethyl acetylsalicylate.HCl salt (P-1, in 25% ethanol); 4-acetamidophenyl salicylyldimethylaminobutyrate.HCl (P-6, in 25% ethanol), diethylaminoethyl 5-(2,4-difluorophenyl)acetylsalicylate.5-(2,4-difluorophenyl)acetylsalicylic acid salt (P-8, in 25% ethanol), diethylaminoethyl salicylsalicylate.HCl salt (P-9, in 25% ethanol), diethylaminoethyl salicylate.AcOH(P-10, in 25% ethanol), diethylaminoethyl 5-acetamido-acetylsalicylate.HCl(P-58, in 25% ethanol), diethylaminoethyl acetylsalicylsalicylate. HCl salt (P-59, in 25% ethanol), diethylaminoethyl acetylsalicylsalicylsalicylate. HCl salt (P-60, in 25% ethanol) were administered transdermally to the backs (6 cm^2, fur was shaved) of GK rats (SLAC/GK, 14-16 weeks old) and normal SD rats (SLAC/SD, 14-16 weeks old) once per day (at 8 am) for 6 weeks.
(§2) The blood glucose levels were measured once every 3 days at 4:30 pm (no fasting) from the third week to the sixth week as shown in Table 10a and 10b. […] Moreover, the blood glucose levels of the rats stayed at normal level (6-9 mmol/L, no fasting) after the treatment was stopped for 40 days.

[2] = system: GK rats (SLAC/GK, type 2 diabetes); experiment: Anti-diabetes (type II) activity of HPCs of NSAIAs in GK rats; type: in vivo; conditions: 30 mg/kg transdermally once per day, no fasting
Method: as §1, §2

SLAC/DB/DB obese mice = experiment: Blood glucose and blood lipid levels in DB/DB mice; type: in vivo; conditions: 30 mg/kg transdermally once per day
Method: HPCs in the present disclosure lowered blood glucose levels and blood lipid levels in mice models (SLAC/DB/DB, obese mice, n=7). 30 mg/kg of 8% diethylaminoethyl acetylsalicylate.HCl salt (P-1, in 25% ethanol); 4-acetamidophenyl salicylyldimethylaminobutyrate.HCl (P-6, in 25% ethanol), diethylaminoethyl 5-(2,4-difluorophenyl)acetylsalicylate.5-(2,4-difluorophenyl)acetylsalicylic acid salt (P-8, in 25% ethanol), diethylaminoethyl salicylsalicylate.HCl salt (P-9, in 25% ethanol), diethylaminoethyl salicylate.AcOH(P-10, in 25% ethanol), diethylaminoethyl 5-acetamido-acetylsalicylate.HCl(P-58, in 25% ethanol), diethylaminoethyl acetylsalicylsalicylate.HCl salt (P-59, in 25% ethanol), diethylaminoethyl acetylsalicylsalicylsalicylate.HCl salt (P-60, in 25% ethanol) were administered transdermally to the backs (4 cm^2,fur was shaved) of DB/DB mice(SLAC/DB/DB, 10-12 weeks old) once per day (at 8 am) for 5 weeks. The blood glucose levels were measured once per week and blood lipid levels were measured once every other week.

[3] = system: SLAC:NOD-IDDM, type 1 diabetes; experiment: Anti-diabetes (type I) activity of HPCs of NSAIAs; type: in vivo, mice
Source text: 10% aqueous solution of diethylaminoethyl acetylsalicylate.acetylsalicylic acid salt (P-1, […]); 4-acetamidophenyl salicylyldimethylaminobutyrate. HCl (P-6), diethylaminoethyl 5-(2,4-difluorophenyl)acetylsalicylate.5-(2,4-difluorophenyl)acetylsalicylic acid salt (P-8), diethylaminoethyl salicylsalicylate.AcOH(P-9), diethylaminoethyl 5-acetamido-acetylsalicylate. HCl (P-58), diethylaminoethyl 2-(ρ-isobutylphenyl) propionate.citric acid (P-59), diethylaminoethyl acetylsalicylsalicylate. acetylsalicylsalicylsalicylic acid salt (P-60) (equal to of 20 mg/kg of NSAIAs) were administered transdermally to the shaved back (about 1.5 cm^2) of mice twice per day (at 8 am and 5 pm) for 7 weeks.
The blood glucose levels were measured once every 3 days at 4:30 pm (no fasting) from the fourth week to the seventh week as shown in Table 11.

Tg2576 mouse model of AD = experiment: Anti-Alzheimer disease activity in Tg2576 mice; type: in vivo
Source text: For many years, efforts have been focused on the development of inhibitors of β-amyloid (Aβ) formation and its related neurotoxic effects. To determine the effect of diethylaminopropyl acetylsalicylate. HCl on in vivo AD accumulation, we administered transdermally diethylaminopropyl acetylsalicylate. […] Three-month-old female transgenic mice overexpressing the human APP gene containing the Swedish mutation that causes familial AD (Tg2576 line) were used for testing the effects of diethylaminopropyl acetylsalicylate.HCl in vivo. 20 Tg2576 mice were divided into 2 groups. […] In group B (n=10), 50 mg/kg of diethylaminopropyl acetylsalicylate.HCl in 0.2 ml of pure water was applied to the back of mouse once per day for 2 months. Then the animals were killed and their brains were removed for analysis. For Aβ analysis, hemibrains were dounce homogenized in 70% formic acid at 150 mg tissue/ml formic acid solution. Homogenates were transferred to a chilled ultracentrifuge and were then spun at 100,000 g for 1 h at 4° C. Supernatants were collected and neutralized with formic acid neutralization buffer (1.0 M Tris base, 0.5 M NaH2PO4, and 0.05% NaN3; 1:20) for Aβ quantitation by ELISA. Aβ40 and Aβ42 were assayed by ELISA. Four individual experiments were performed. To compare across studies, the values for an individual study were normalized using the values obtained for the control animals included in each study. Values represent the mean±SE for the n number shown, after normalizing.
To determine if the transdermal administration of diethylaminopropyl acetylsalicylate.HCl has beneficial functional consequences, we tested 2 months of diethylaminopropyl acetylsalicylate.HCl (50 mg/kg) in the transgenic model for Alzheimer's disease in which mice develop learning deficits as amyloid accumulates. […] In the diethylaminopropyl acetylsalicylate.HCl (50 mg/kg) treated group, all mice performed superbly on the radial-arm water-maze test of working memory and untreated transgenic mice show memory deficits. […] This therapeutic approach can thus prevent and treat Alzheimer's dementia.

spinal cord injuries = experiment: Spinal cord injury in paralyzed rats; type: in vivo; conditions: 5 mg in 0.2 ml water on area of injury twice per day for 1 months, n=10
Method: A paralyzed rat was produced by anesthetizing with chloral hydrate first, and then hitting at its spinal cord to induce spinal cord injuries. On the next day, 20 completely paralyzed rats were divided into 2 groups. […] In group B (n=10), 5 mg of diethylaminopropyl acetylsalicylate.HCl in 0.2 ml of pure water was applied to the area of injury (˜2×3 cm^2) twice per day for 1 months. After the treatment, all rats (10/10) in group A were still completely paralyzed. While all rats (10/10) in group B could walk. 4 Rats of group B acted completely normal and the other 6 rats walked more slowly and less confidently than before their injury.

[4] = system: carrageenin-induced swelling of rat hind paw; experiment: Anti-inflammatory activity, carrageenin paw swelling; type: in vivo, rats; conditions: transdermal or oral administrations
[5] = system: rats given sterilized E. coli suspension as a pyrogen; experiment: Antipyretic activity of ibuprofen and its HPC (Study A); type: in vivo; conditions: 20 mg/kg, oral administration

## CCN(CC)CCOC(=O)c1ccccc1OC(=O)c1ccccc1OC(C)=O.Cl [P-59, diethylaminoethyl acetylsalicylsalicylate. HCl salt]
[1]
  lung tissue and vascular walls (histology): both lung tissue and vascular walls were normal
Normal SD rats (SLAC/SD)
  blood glucose, Average (Week 2-5): 5.8 ± 1.0 mmol/L
  blood glucose, Day 1: 5.7 ± 1.3 mmol/L
[2]
  blood glucose, Average (Week 2-5): 8.2 ± 2.7 mmol/L
  blood glucose, Day 1: 16.8 ± 3.0 mmol/L
SLAC/DB/DB obese mice
  Cholesterol (total), Day 1: 6.6 ± 0.4 mmol/L
  Cholesterol (total), Week 5: 4.7 ± 0.4 mmol/L
  Triglycerides, Day 1: 4.6 ± 0.4 mmol/L
  Triglycerides, Week 5: 4.6 ± 0.5 mmol/L
  blood glucose, Day 1: 14.2 ± 2.2 mmol/L
  blood glucose, Week 5: 8.1 ± 2.4 mmol/L
[3]; equal to 20 mg/kg of NSAIAs transdermally twice per day for 7 weeks
  blood glucose, Baseline: 19.1 ± 3.2 mmol/L
[3]; fourth week to seventh week, no fasting, equal to 20 mg/kg of NSAIAs transdermally twice per day
  blood glucose, Average: 8.9 ± 1.7 mmol/L

## CCN(CC)CCCOC(=O)c1ccccc1OC(C)=O.Cl [diethylaminopropyl acetylsalicylate.HCl]
Tg2576 mouse model of AD; 50 mg/kg transdermally once per day for 2 months
  reduction in Aβ42 concentration in the brain: 70%
Tg2576 mouse model of AD; 50 mg/kg transdermally once per day for 2 months, ELISA
  Aβ42 concentration: 2.3 ± 0.3 pmol/g tissue
Tg2576 mouse model of AD; 50 mg/kg, 2 months
  cognitive performance, radial-arm water-maze test of working memory: performed as well as nontransgenic mice
Spinal cord injuries
  rats that acted completely normal after the treatment: 4
  rats that could walk after the treatment: 10/10

## CCN(CC)CCOC(=O)C(C)c1ccc(CC(C)C)cc1 (centres unmarked) [HPC of ibuprofen, diethylaminoethyl 2-(ρ-isobutylphenyl) propionate]
[4]
  anti-inflammatory activities, times stronger than parent drug ibuprofen: more than 5 times
[5]
  antipyretic effect: almost the same effect as 100 mg/kg of ibuprofen
